# Active and inactive are the calls of the source. The calls are words filed in the database; no cut-off is given here.
# Columns and labels:
# HCT-116 = assay: Cytotoxicity against human HCT116 cells assessed as decrease in cell viability after 48 hrs by MTT assay; format: functional, cell-based; details: HCT-116, 48 h
# MCF7 = assay: Cytotoxicity against human MCF7 cells assessed as decrease in cell viability after 48 hrs by MTT assay; format: functional, cell-based; details: MCF7, 48 h
# Staphylococcus aureus = assay: Antibacterial activity against Staphylococcus aureus ATCC 29213 after 24 hrs by two-fold serial dilution method; format: functional; details: ATCC 29213, 24 h
# Candida albicans = assay: Antifungal activity against Candida albicans after 48 hrs by two-fold serial dilution method; format: functional
# Bacillus cereus = assay: Antibacterial activity against Bacillus cereus UW 85 after 24 hrs by two-fold serial dilution method; format: functional; details: UW 85, 24 h
# [1] = test system: Chromobacterium violaceum; assay: Inhibition of quorum sensing system in Chromobacterium violaceum ATCC 12472 assessed as diameter of violacein pigment inhibition at 5 mg/ml after 48 hrs
# Aspergillus fumigatus = assay: Antifungal activity against Aspergillus fumigatus 293 after 48 hrs by two-fold serial dilution method; format: functional; details: Af293, 48 h
# HepG2 = assay: Cytotoxicity against human HepG2 cells assessed as decrease in cell viability after 48 hrs by MTT assay; format: functional, cell-based; details: HepG2, 48 h
# Escherichia coli = assay: Antibacterial activity against Escherichia coli ATCC 12435 after 24 hrs by two-fold serial dilution method; format: functional; details: ATCC 12435, 24 h
# Ehrlich [2] = assay: Antitumor activity against mouse EAC allografted in Swiss mouse assessed as increase in mouse life span at 0.5 mg administered 9 days relative to control; format: functional
# Ehrlich [3] = assay: Antitumor activity against mouse EAC allografted in Swiss mouse assessed as RBC count in blood at 0.5 mg administered 9 days (reference value: 3.69 10^6/mm3); format: functional
# Ehrlich [4] = assay: Antitumor activity against mouse EAC allografted in Swiss mouse assessed as hemoglobin count in blood at 0.5 mg administered 9 days (reference value: 8.73 g/dl); format: functional
# Ehrlich [5] = assay: Antitumor activity against mouse EAC allografted in Swiss mouse assessed as tumor volume at 0.5 mg administered 9 days (reference value: 9.85 ml); format: functional
# WI-38 = assay: Cytotoxicity against human W138 cells assessed as decrease in cell viability after 48 hrs by MTT assay; format: cell-based; details: WI-38, 48 h
# Ehrlich [6] = assay: Antitumor activity against mouse EAC allografted in Swiss mouse assessed as mean mouse survival time at 0.5 mg administered 9 days (reference value: 14.5 days); format: functional
# Ehrlich [7] = assay: Antitumor activity against mouse EAC allografted in Swiss mouse assessed as WBC count in blood at 0.5 mg administered 9 days (reference value: 23.96 10^3/mm3); format: functional
# [8] = Displacement of methyl green from DNA (unknown origin) incubated in dark for 24 hrs by colorimetric method
# Ehrlich [9] = assay: Antitumor activity against mouse EAC allografted in Swiss mouse assessed as decrease in viable tumor cell count at 0.5 mg administered 9 days by trypan blue staining method; format: functional
Structure (SMILES),IC50 (HCT-116),IC50 (MCF7),MIC (Staphylococcus aureus),MIC (Candida albicans),MIC (Bacillus cereus),Activity [1],MIC (Aspergillus fumigatus),IC50 (HepG2),MIC (Escherichia coli),ILS (Ehrlich [2]),Activity (Ehrlich [3]),Activity (Ehrlich [4]),Activity (Ehrlich [5]),IC50 (WI-38),MST (Ehrlich [6]),Activity (Ehrlich [7]),IC50 [8],Activity (Ehrlich [9])
CCOC(=O)c1c(NC(=O)CSCc2nc3cc([N+](=O)[O-])ccc3[nH]2)sc2c1CCCCC2,7.51 µM,10.3 µM,2560 µM,1280 µM,2560 µM,< 2 mm,2560 µM,7.39 µM,2560 µM,–,–,–,–,–,–,–,–,–
O=c1[nH]cc(F)c(=O)[nH]1 [FLUOROURACIL],4 µM,4.3 µM,–,–,–,–,–,5.3 µM,–,237.93%,5.21 ×10⁶ /mm3,12.96 g/dL,1.6 mL,5.73 µM,49 days,8.86 ×10³ /mm3,–,–
O=[N+]([O-])c1ccc2[nH]c(CSCc3nc4ccccc4[nH]3)nc2c1,7.91 µM,13.1 µM,3680 µM,3680 µM,> 2500 µg/mL,4 mm,> 2500 µg/mL,11.2 µM,> 2500 µg/mL,–,–,–,–,–,–,–,–,–
COc1cccc2c1C(=O)c1c(O)c3c(c(O)c1C2=O)C[C@@](O)(C(=O)CO)C[C@@H]3O[C@H]1C[C@H](N)[C@H](O)[C@H](C)O1 [DOXORUBICIN],–,–,–,–,–,–,–,–,–,–,–,–,–,–,–,–,32.4 µM,–
O=C(CSCc1nc2cc([N+](=O)[O-])ccc2[nH]1)c1ccc(Br)cc1,1.78 µM,1.55 µM,192 µM,385 µM,769 µM,< 2 mm,385 µM,2.01 µM,> 2500 µg/mL,212.42%,5.14 ×10⁶ /mm3,12.92 g/dL,2.41 mL,31.5 µM,45.3 days,7.41 ×10³ /mm3,34.6 µM,Active
O=[N+]([O-])c1ccc2[nH]c(CSCc3nc4cc([N+](=O)[O-])ccc4[nH]3)nc2c1,2.41 µM,1.74 µM,406 µM,406 µM,813 µM,11 mm,406 µM,2.25 µM,1630 µM,224.14%,5.45 ×10⁶ /mm3,13.18 g/dL,2.22 mL,25.4 µM,47 days,7.23 ×10³ /mm3,37.1 µM,Active
CC1=NN(C(=O)CSCc2nc3cc([N+](=O)[O-])ccc3[nH]2)C(=O)C1,5.41 µM,8.07 µM,> 2500 µg/mL,7200 µM,> 2500 µg/mL,< 2 mm,> 2500 µg/mL,7.33 µM,> 2500 µg/mL,–,–,–,–,–,–,–,–,–
Oc1cc(O)c2c(c1)O[C@H](c1ccc(O)c(O)c1)[C@@H](O)C2,–,–,–,–,–,2 mm,–,–,–,–,–,–,–,–,–,–,–,–
O=C(CSCc1nc2cc([N+](=O)[O-])ccc2[nH]1)N/N=C/c1ccc(Cl)cc1,15.3 µM,13.7 µM,> 2500 µg/mL,774 µM,> 2500 µg/mL,< 2 mm,1550 µM,56.8 µM,> 2500 µg/mL,–,–,–,–,–,–,–,–,–
OC(Cn1cncn1)(Cn1cncn1)c1ccc(F)cc1F [FLUCONAZOLE],–,–,–,8160 µM,–,–,> 2500 µg/mL,–,–,–,–,–,–,–,–,–,–,–
O=C(CSCc1nc2cc([N+](=O)[O-])ccc2[nH]1)NNC(=S)Nc1ccccc1,29.2 µM,> 100 µM,> 2500 µg/mL,375 µM,> 2500 µg/mL,< 2 mm,750 µM,> 100 µM,> 2500 µg/mL,–,–,–,–,–,–,–,52.3 µM,–
NC(=S)NNC(=O)CSCc1nc2cc([N+](=O)[O-])ccc2[nH]1,4.71 µM,7.53 µM,918 µM,459 µM,3670 µM,11 mm,1840 µM,7.05 µM,> 2500 µg/mL,–,–,–,–,–,–,–,66.2 µM,–
NC(=O)CSCc1nc2cc([N+](=O)[O-])ccc2[nH]1,17.2 µM,19.7 µM,147 µM,147 µM,293 µM,9 mm,293 µM,26.9 µM,587 µM,–,–,–,–,–,–,–,41.3 µM,–
CCOC(=O)CSCc1nc2cc([N+](=O)[O-])ccc2[nH]1,> 100 µM,> 100 µM,2120 µM,2120 µM,2120 µM,< 2 mm,2120 µM,> 100 µM,4230 µM,–,–,–,–,–,–,–,–,–
N#CCSCc1nc2cc([N+](=O)[O-])ccc2[nH]1,28.2 µM,27.4 µM,> 2500 µg/mL,5040 µM,5040 µM,< 2 mm,5040 µM,30.6 µM,> 2500 µg/mL,–,–,–,–,–,–,–,–,–
N#Cc1sc(Nc2ccccc2)nc1NC(=O)CSCc1nc2cc([N+](=O)[O-])ccc2[nH]1,8.43 µM,11.3 µM,5370 µM,2690 µM,5370 µM,< 2 mm,5370 µM,9.48 µM,> 2500 µg/mL,–,–,–,–,–,–,–,–,–
CC1(C)S[C@@H]2[C@H](NC(=O)[C@H](N)c3ccccc3)C(=O)N2[C@H]1C(=O)O [AMPICILLIN],–,–,894 µM,–,3580 µM,–,–,–,55.9 µM,–,–,–,–,–,–,–,–,–
NNC(=O)CSCc1nc2cc([N+](=O)[O-])ccc2[nH]1,5.33 µM,13.2 µM,> 2500 µg/mL,1110 µM,> 2500 µg/mL,< 2 mm,4440 µM,18.6 µM,> 2500 µg/mL,–,–,–,–,–,–,–,87.2 µM,–
O=C(CSCc1nc2cc([N+](=O)[O-])ccc2[nH]1)c1ccc(Cl)cc1,2.23 µM,2.8 µM,864 µM,864 µM,6910 µM,< 2 mm,3450 µM,2.65 µM,> 2500 µg/mL,170.34%,4.87 ×10⁶ /mm3,12.32 g/dL,2.83 mL,33.8 µM,39.2 days,9.1 ×10³ /mm3,62.8 µM,Active
O=C(CSCc1nc2cc([N+](=O)[O-])ccc2[nH]1)c1ccccc1,12.3 µM,18.6 µM,3820 µM,1910 µM,> 2500 µg/mL,< 2 mm,7640 µM,16.1 µM,> 2500 µg/mL,–,–,–,–,–,–,–,–,–
